Results on 65 sequences are retold here after the supplement of paper PMC11208160.
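Also: IS621 bridge recombinase in Escherichia coli cells against a fixed T5 target plasmid.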

This series in a line: recombinant UMI read abundance after kanamycin selection (control-corrected) (log10(CPM+1)); higher = more efficient recombination; extreme values may be limits of the assay; sequences stand for … in AGTGCAGAGAAAATCGGCCAGTTTTCTCTGCCTGCAGTCCGCATGCCGTGGGACCCCTTGGGTTCTAACCTGTTGCCTAGATTTATGCAGCGGACTGCCTTTCTCCCAAAGTGATAAACCGG…AGGTTGGTTTCACT; site = the 11-nt donor. The procedure: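 Pooled E. coli donor-specificity screen for the IS621 bridge recombinase. Each library member carries a reprogrammed 11-nt donor and a full-length LE bridge RNA expressed in cis from the natural promoter, with a paired donor-binding loop (8-nt LDG + 4-nt RDG) and a target-binding loop fixed to T5. It is co-electroporated with a T5 target plasmid; recombinase is induced with 0.07 mM IPTG and recombinants are selected on kanamycin. UMIs are counted as CPM, averaged over two biological replicates and corrected by the unselected control. Molecule = full bridge RNA written as DNA, built from the T5 scaffold: LDG = donor specificity nt 1-8, RDG = reverse complement of nt 8-11.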
For “AATTATGCATGGACCGGTTTTCCCGGTAATCCGTATTTGGA (site AATTATCCTTC)”, the “recombinant UMI read abundance (log10)” value was found to be 0.447.

On to “AATTATGCATGGACCGGTTTTCCCGGTAATCCGTATTTGGA (site AATTATGCTAC)”, for which the “recombinant UMI read abundance (log10)” value was determined as 0.0199.

As for “AATTATGCATGGACCGGTTTTCCCGGTAATCCGTATTTGGA (site AATTATGCTCC)”, the “recombinant UMI read abundance (log10)” value amounted to 0.0288. To “AATTATGCATGGACCGGTTTTCCCGGTAATCCGTATTTGGA (site AATTATGCTGC)” belongs 0. As for “AATTATGCATGGACCGGTTTTCCCGGTAATCCGTATTTGGA (site AATTATGCTTA)”, the “recombinant UMI read abundance (log10)” value was 0.00642.

As to “AATTATGCATGGACCGGTTTTCCCGGTAATCCGTATTTGGA (site AATTATGCTTC)”, the “recombinant UMI read abundance (log10)” value was 0.373.

On to “AATTATGCATGGACCGGTTTTCCCGGTAATCCGTATTTGGA (site AATTATGCTTG)”, for which the “recombinant UMI read abundance (log10)” value was determined as 0. For “AATTATGCATGGACCGGTTTTCCCGGTAATCCGTATTTGGA (site AATTATGCTTT)” the value was 0.359.

With “AATTATGCATGGACCGGTTTTCCCGGTAATCCGTATTTGGA (site AATTATTCTTC)”, the “recombinant UMI read abundance (log10)” value worked out at 0.941. Take “AATTATGCATGGACCGGTTTTCCCGGTAATCCGTATTTGGA (site AATTCTGCTTC)”: the “recombinant UMI read abundance (log10)” value came out at 0.313. For “AATTATGCATGGACCGGTTTTCCCGGTAATCCGTATTTGGA (site AATTGTGCTTC)” the value was 0.266; for “AATTATGCATGGACCGGTTTTCCCGGTAATCCGTATTTGGA (site AATTTTGCTTC)”, 0.00678; for “AATTATGCATGGACCGGTTTTCCCGGTAATCCGTATTTGGA (site ACTTATGCTTC)”, 0.937.

Consider “AATTATGCATGGACCGGTTTTCCCGGTAATCCGTATTTGGA (site AGTTATGCTTC)”, for which the “recombinant UMI read abundance (log10)” value came to 1.09. Regarding “AATTATGCATGGACCGGTTTTCCCGGTAATCCGTATTTGGA (site ATTTATGCTTC)”, the “recombinant UMI read abundance (log10)” value turned out to be 1.25.

Take “AATTATGCATGGACCGGTTTTCCCGGTAATCCGTATTTGGA (site CATTATGCTTC)”: the “recombinant UMI read abundance (log10)” value is 1.51. Turning to “AATTATGCATGGACCGGTTTTCCCGGTAATCCGTATTTGGA (site GATTATGCTTC)”, the “recombinant UMI read abundance (log10)” value was 0.983. For “AATTATGCATGGACCGGTTTTCCCGGTAATCCGTATTTGGA (site TATTATGCTTC)”, the “recombinant UMI read abundance (log10)” value was determined as 0.862. For “AATTATGCATGGACCGGTTTTCCCGGTAATCCGTATTTGGT (site AATTATGCTAC)” the value was 2.02; for “AATTATGCATGGACCGGTTTTCCCGGTAATCCGTATTTGGT (site AATTATGCTCC)”, 0.00684; for “AATTATGCATGGACCGGTTTTCCCGGTAATCCGTATTTGGT (site AATTATGCTGC)”, 0. For “AATTATGCATGGACCGGTTTTCCCGGTAATCCGTATTTGGT (site AATTATGCTTC)” the value was 0.0116; for “AATTGCTCATGGACCGGTTTTCCCGGTAATCCGTATTTGCC (site AATTGCTCTGG)”, 2.51; for “AATTGGGCATGGACCGGTTTTCCCGGTAATCCGTATTTGAA (site AATTGGGCTTT)”, 0.399. To “AATTTGTCATGGACCGGTTTTCCCGGTAATCCGTATTTGAC (site AATATGTCTGT)” belongs 0; to “AATTTGTCATGGACCGGTTTTCCCGGTAATCCGTATTTGAC (site AATCTGTCTGT)”, 0.

Take “AATTTGTCATGGACCGGTTTTCCCGGTAATCCGTATTTGAC (site AATGTGTCTGT)”: the “recombinant UMI read abundance (log10)” value was found to be 0. For “AATTTGTCATGGACCGGTTTTCCCGGTAATCCGTATTTGAC (site AATTTGTCTGT)” the value was 0; for “ACAAAATCATGGACCGGTTTTCCCGGTAATCCGTATTTGCA (site ACAAAATCTTG)”, 1.3; for “ACAAAATCATGGACCGGTTTTCCCGGTAATCCGTATTTGCA (site ACAGTATCTTG)”, 1.45.

On to “ACAAAGGCATGGACCGGTTTTCCCGGTAATCCGTATTTGCT (site AAAAAGGCTAG)”, for which the “recombinant UMI read abundance (log10)” value stood at 0. As to “ACAAAGGCATGGACCGGTTTTCCCGGTAATCCGTATTTGCT (site ACAAAGGCTAG)”, the “recombinant UMI read abundance (log10)” value stood at 2.57. For “ACAAAGGCATGGACCGGTTTTCCCGGTAATCCGTATTTGCT (site AGAAAGGCTAG)” the value was 0; for “ACAAAGGCATGGACCGGTTTTCCCGGTAATCCGTATTTGCT (site ATAAAGGCTAG)”, 1.17. For “ACAACTACATGGACCGGTTTTCCCGGTAATCCGTATTTGTG (site ACAACTACTCA)” the value was 0.844; for “ACAACTACATGGACCGGTTTTCCCGGTAATCCGTATTTGTG (site ACACCTACTCA)”, 0.0441; for “ACAACTACATGGACCGGTTTTCCCGGTAATCCGTATTTGTG (site ACAGCTACTCA)”, 0.0923. Consider “ACAACTACATGGACCGGTTTTCCCGGTAATCCGTATTTGTG (site ACATCTACTCA)”, for which the “recombinant UMI read abundance (log10)” value is 0.146. For “ACAAGAACATGGACCGGTTTTCCCGGTAATCCGTATTTGAG (site ACAAGAACTCT)” the value was 2.72. To “ACAAGAACATGGACCGGTTTTCCCGGTAATCCGTATTTGAG (site ACCAGAACTCT)” belongs 0.645. Take “ACAAGAACATGGACCGGTTTTCCCGGTAATCCGTATTTGAG (site ACGAGAACTCT)”: the “recombinant UMI read abundance (log10)” value was determined as 1.41. To “ACAAGAACATGGACCGGTTTTCCCGGTAATCCGTATTTGAG (site ACTAGAACTCT)” belongs 0.755; to “ACAAGGCCATGGACCGGTTTTCCCGGTAATCCGTATTTGAC (site AAAAGGCCTGT)”, 0. On to “ACAAGGCCATGGACCGGTTTTCCCGGTAATCCGTATTTGAC (site ACAAGGCCTGT)”, for which the “recombinant UMI read abundance (log10)” value was 0.512. With “ACAAGGCCATGGACCGGTTTTCCCGGTAATCCGTATTTGAC (site AGAAGGCCTGT)”, the “recombinant UMI read abundance (log10)” value is 0. To “ACAAGGCCATGGACCGGTTTTCCCGGTAATCCGTATTTGAC (site ATAAGGCCTGT)” belongs 1.34; to “ACAAGTGCATGGACCGGTTTTCCCGGTAATCCGTATTTGGT (site ACAAGTGCTAC)”, 2.04. For “ACAAGTGCATGGACCGGTTTTCCCGGTAATCCGTATTTGGT (site ACCAGTGCTAC)” the value was 0.897; for “ACAAGTGCATGGACCGGTTTTCCCGGTAATCCGTATTTGGT (site ACGAGTGCTAC)”, 1.09; for “ACAAGTGCATGGACCGGTTTTCCCGGTAATCCGTATTTGGT (site ACTAGTGCTAC)”, 1.16. To “ACAATATCATGGACCGGTTTTCCCGGTAATCCGTATTTGCT (site ACAATATCTAG)” belongs 2.64. “ACAATATCATGGACCGGTTTTCCCGGTAATCCGTATTTGCT (site ACAGTATCTTG)”: the “recombinant UMI read abundance (log10)” value amounted to 0.278.

Take “ACAATGGCATGGACCGGTTTTCCCGGTAATCCGTATTTGAT (site ACAATGGCTAT)”: the “recombinant UMI read abundance (log10)” value turned out to be 2.3. For “ACACAGCCATGGACCGGTTTTCCCGGTAATCCGTATTTGAC (site ACACAACCTGT)” the value was 0. Turning to “ACACAGCCATGGACCGGTTTTCCCGGTAATCCGTATTTGAC (site ACACACCCTGT)”, the “recombinant UMI read abundance (log10)” value was found to be 1.68. For “ACACAGCCATGGACCGGTTTTCCCGGTAATCCGTATTTGAC (site ACACAGCCTGT)”, the “recombinant UMI read abundance (log10)” value was 1.05. Regarding “ACACAGCCATGGACCGGTTTTCCCGGTAATCCGTATTTGAC (site ACACATCCTGT)”, the “recombinant UMI read abundance (log10)” value is 0.0116. To “ACACAGCCATGGACCGGTTTTCCCGGTAATCCGTATTTGTG (site ACACAGCCTCA)” belongs 0.606.

In the case of “ACACCAACATGGACCGGTTTTCCCGGTAATCCGTATTTGTC (site ACACAAACTGA)”, the “recombinant UMI read abundance (log10)” value came to 0. As to “ACACCAACATGGACCGGTTTTCCCGGTAATCCGTATTTGTC (site ACACCAACTGA)”, the “recombinant UMI read abundance (log10)” value was found to be 1.62. For “ACACCAACATGGACCGGTTTTCCCGGTAATCCGTATTTGTC (site ACACGAACTGA)” the value was 0; for “ACACCAACATGGACCGGTTTTCCCGGTAATCCGTATTTGTC (site ACACTAACTGA)”, 0; for “ACACCACCATGGACCGGTTTTCCCGGTAATCCGTATTTGAT (site ACACCACCTAT)”, 0.00417. For “ACACCTCCATGGACCGGTTTTCCCGGTAATCCGTATTTGAC (site ACACATCCTGT)” the value was 0. For “ACACCTCCATGGACCGGTTTTCCCGGTAATCCGTATTTGAC (site ACACCTCCTGT)”, the “recombinant UMI read abundance (log10)” value was determined as 1.93.
